The results in this text go back to US20050014942A1, “Amide derivatives and drugs” (priority 2001, published 2005).

The assay concerns collagen production induced by TGF-β (NHDF cells). As to the kind of experiment: Inhibitory effect on collagen production induced by TGF-β, [3H] proline uptake (NHDF cells). The assay is classed as cell-based, human. The following applies: TGF-β1 3 ng/ml; for inhibition at 1 µM / inhibition at 3 µM: Homo sapiens, NHDF. The method, then: As an index of collagen production, the uptake of [^3H] proline was measured.
Using a 96-well microplate, normal human skin derived fibroblast (NHDF, 10^4/well) or human embryonic lung fibroblast (TIG-3, 10^4/well) were cultured in a 10% fetal calf serum (FCS)-containing Dulbecco's modified Eagle medium (DMEM) for one day. After removing the culture supernatant, the cells were washed once with a 0.1% bovine serum albumin (BSA)-containing DMEM medium and then cultured in the 0.1% bovine serum albumin (BSA)-containing DMEM medium for one day. After adding each of the test compounds in each concentration (1, 3, 10 μM), the cells were cultured and, after adding TGF-β1 (3 ng/ml) and [^3H] proline (18.5 kBq/well), the cells were further cultured for additional one day.
After removing the culture supernatant, the cells were washed twice with a phosphate buffer solution (PBS) and dissolved with 0.3M NaOH and 1% sodium dodecylsulfate (SDS), and then each protein fraction was precipitated with trichloroacetic acid (TCA) After the precipitate was filtered through a glass filter (GF/B) and washed, the quantity of [^3H] proline on the glass filter was measured by a liquid scintillation counter. The number of cells was measured by a cell growth measuring kit (XTT, Roche) and the uptake of [^3H] proline was corrected by the number of cells. Inhibitory ratio was calculated as compared with the case where a difference between the uptake of [^3H] proline with or without TGF-β1.

Where a name gives a salt, the structure may show the parent alone.

In the case of `CCOC(=O)C1CCCCC1NC(=O)c1cnc(N2CCN(C(=O)c3c(-c4ccccc4)n(C)c4ccc(C)cc34)CC2)cn1` (centres unmarked) [Example 127, Ethyl 2-{N-[(5-{4-[(1,5-dimethyl-2-phenyl-1H-indol-3-yl)carbonyl]piperazin-1-yl}pyrazin-2-yl)carbonyl]amino}-1-cyclohexanecarboxylate], the inhibition at 1 µM (1 μM) was 72%. Further, the inhibition at 3 µM (3 μM) amounted to 78%.

Take `COc1cc2c(cc1OC)CN(C(=O)/C=C/c1c(-c3ccccc3)n(C)c3nccnc13)CC2` [Example 128, 2-[(2E)-3-(5-methyl-6-phenyl-5H-pyrrolo[2,3-b]pyrazin-7-yl)prop-2-enoyl]-6,7-dimethoxy-1,2,3,4-tetrahydroisoquinoline hydrochloride]: the inhibition at 1 µM (1 μM) is 61%. Moreover, the inhibition at 3 µM (3 μM) was determined as 76%.

As for `CCOC(=O)C1CCCC1NC(=O)c1cnc(N2CCN(C(=O)c3c(-c4ccccc4)n(C)c4ccc(C)cc34)CC2)cn1` (centres unmarked) [Example 129, Ethyl 2-{N-[(5-{4-[(1,5-dimethyl-2-phenyl-1H-indol-3-yl)carbonyl]piperazin-1-yl}pyrazin-2-yl)carbonyl]amino}-1-cyclopentanecarboxylate], for the setting “1 μM”, the inhibition at 1 µM was found to be 75%. Further, the inhibition at 3 µM (3 μM) turned out to be 73%.

Consider `COc1cc2c(cc1OC)CN(C(=O)/C=C/c1c(-c3ccccc3)n(C)c3cnccc13)CC2` [Example 130, 2-[(2E)-3-(1-methyl-2-phenyl-1H-pyrrolo[2,3-c]pyridin-3-yl)prop-2-enoyl]-6,7-dimethoxy-1,2,3,4-tetrahydroisoquinoline hydrochloride], for which the inhibition at 1 µM (1 μM) is 92%. Besides, the inhibition at 3 µM (3 μM) is 157%.

`COc1ccc(-c2c(/C=C/C(=O)N3CCc4cc(OC)c(OC)cc4C3)c3cccnc3n2C)cc1OC` [Example 131, 2-{(2E)-3-[1-methyl-2-(3,4-dimethoxyphenyl)-1H-pyrrolo[2,3-b]pyridin-3-yl]prop-2-enoyl}-6,7-dimethoxy-1,2,3,4-tetrahydroisoquinoline hydrochloride]: the inhibition at 1 µM (1 μM) worked out at 96%. Besides, the inhibition at 3 µM (3 μM) is 141%.

For the compound `Cc1ccc2c(c1)c(C(=O)N1CCN(c3cnc(C(=O)N(C)[C@@H](Cc4ccccc4)C(=O)O)cn3)CC1)c(-c1ccccc1)n2C` [Example 132, N-methyl-N-[(5-{4-[(1,5-dimethyl-2-phenyl-1H-indol-3-yl)carbonyl]piperazin-1-yl}pyrazin-2-yl)carbonyl]-(S)-phenylalanine], for the setting “1 μM”, the inhibition at 1 µM worked out at 67%. For the same compound, under “3 μM”, the inhibition at 3 µM was determined as 122%.

`COC(=O)CC1c2cc(OC)c(OC)cc2CCN1C(=O)/C=C/c1c(-c2ccccc2)n(C)c2ncccc12` (centres unmarked) [Example 133, Methyl {6,7-dimethoxy-2-[(2E)-3-(1-methyl-2-phenyl-1H-pyrrolo[2,3-b]pyridin-3-yl)prop-2-enoyl]-1,2,3,4-tetrahydroisoquinolin-1-yl}acetate hydrochloride]: the inhibition at 1 µM (1 μM) came to 57%. Also, the inhibition at 3 µM (3 μM) came to 104%.

Turning to `COc1cc2c(cc1OC)C(CC(=O)O)N(C(=O)/C=C/c1c(-c3ccccc3)n(C)c3ncccc13)CC2.Cl` (centres unmarked) [Example 134, {6,7-dimethoxy-2-[(2E)-3-(1-methyl-2-phenyl-1H-pyrrolo[2,3-b]pyridin-3-yl)prop-2-enoyl]-1,2,3,4-tetrahydroisoquinolin-1-yl}acetic acid hydrochloride], the “Inhibitory effect on collagen production induced by TGF-β (% inhibition)” value runs as follows: (1 μM) 90%; (3 μM) 111%.

As for `COc1cc2c(cc1OC)CN(C(=O)/C=C/c1c(-c3ccncc3)n(C)c3ncccc13)CC2` [Example 135, 2-{(2E)-3-[1-methyl-2-(4-pyridyl)-1H-pyrrolo[2,3-b]pyridin-3-yl]prop-2-enoyl}-6,7-dimethoxy-1,2,3,4-tetrahydroisoquinoline dihydrochloride], the inhibition at 1 µM (1 μM) stood at 78%. Besides, for the setting “3 μM”, the inhibition at 3 µM came to 110%.

As to `COc1cc2c(cc1OC)CN(C(=O)/C=C/c1c(-c3ccccc3)n(C)c3cccnc13)CC2` [Example 136, 2-[(2E)-3-(1-methyl-2-phenyl-1H-pyrrolo[3,2-b]pyridin-3-yl)prop-2-enoyl]-6,7-dimethoxy-1,2,3,4-tetrahydroisoquinoline hydrochloride], the inhibition at 1 µM (1 μM) was 66%. Besides, the inhibition at 3 µM (3 μM) was 111%.

`Cn1c(-c2ccccc2)c(/C=C/C(=O)N(CCc2cccs2)CC(=O)O)c2cccnc21` [Example 137, N-[(2E)-3-(1-methyl-2-phenyl-1H-pyrrolo[2,3-b]pyridin-3-yl)prop-2-enoyl]-N-[2-(2-thienyl)ethyl]aminoacetic acid]: the inhibition at 1 µM (1 μM) came out at 38%. Besides, the inhibition at 3 µM (3 μM) was found to be 72%.

On to `COc1cc2c(cc1OC)CN(C(=O)/C=C/c1c(-c3ccccc3)[nH]c3ncccc13)CC2` [Example 138, 6,7-dimethoxy-2-[(2E)-3-(2-phenyl-1H-pyrrolo[2,3-b]pyridin-3-yl)prop-2-enoyl]-1,2,3,4-tetrahydroisoquinoline dihydrochloride], for which the inhibition at 1 µM (1 μM) turned out to be 65%. Besides, for the setting “3 μM”, the inhibition at 3 µM came out at 53%.

In the case of `COCn1c(-c2ccccc2)c(/C=C/C(=O)N2CCc3cc(OC)c(OC)cc3C2)c2cccnc21` [Example 139, 2-[(2E)-3-(1-methoxymethyl-2-phenyl-1H-pyrrolo[2,3-b]pyridin-3-yl)prop-2-enoyl]-6,7-dimethoxy-1,2,3,4-tetrahydroisoquinoline hydrochloride], under “1 μM”, the inhibition at 1 µM was 37%. The inhibition at 3 µM (3 μM) worked out at 54%.

Turning to `COc1cc2c(cc1OC)CN(C(=O)/C=C/c1c(-c3ccc(F)cc3)n(C)c3ncccc13)CC2` [Example 140, 2-{(2E)-3-[1-methyl-2-(4-fluorophenyl)-1H-pyrrolo[2,3-b]pyridin-3-yl]prop-2-enoyl}-6,7-dimethoxy-1,2,3,4-tetrahydroisoquinoline hydrochloride], the inhibition at 1 µM (1 μM) was determined as 140%. Further, the inhibition at 3 µM (3 μM) is 171%.

As for `COC(=O)c1ccc(-c2c(/C=C/C(=O)N3CCC(C(C)=O)(c4ccccc4)CC3)c3cc(C)ccc3n2C)cc1` [Example 141, 4-acetyl-1-{(2E)-3-[1,5-dimethyl-2-(4-carbomethoxyphenyl)-1H-indol-3-yl]prop-2-enoyl}-4-phenylpiperidine], the inhibition at 1 µM (1 μM) was 111%. The inhibition at 3 µM (3 μM) was 114%.

On to `COC(=O)c1ccc(-c2c(/C=C/C(=O)N3CCc4cc(OC)c(OC)cc4C3)c3cc(C)ccc3n2C)cc1` [Example 142, 2-{(2E)-3-[1,5-dimethyl-2-(4-carbomethoxyphenyl)-1H-indol-3-yl]prop-2-enoyl}-6,7-dimethoxy-1,2,3,4-tetrahydroisoquinoline], for which the inhibition at 1 µM (1 μM) is 65%. Further, the inhibition at 3 µM (3 μM) stood at 130%.

As to `COC(=O)c1ccc(-c2c(/C=C/C(=O)N(C)C3CCN(C)CC3)c3cc(C)ccc3n2C)cc1` [Example 143, (2E)-N-methyl-N-(1-methylpiperidin-4-yl)-3-[1,5-dimethyl-2-(4-carbomethoxyphenyl)-1H-indol-3-yl]acrylamide], under “1 μM”, the inhibition at 1 µM turned out to be 42%. Besides, the inhibition at 3 µM (3 μM) amounted to 104%.

On to `Cc1ncsc1CCNC(=O)c1cnc(N2CCN(C(=O)c3c(-c4ccccc4)n(C)c4ccc(Br)cc34)CC2)cn1` [Example 144, 5-{4-[(5-bromo-1-methyl-2-phenyl-1H-indol-3-yl)carbonyl]piperazin-1-yl}-N-[2-(4-methyl-1,3-thiazol-5-yl)ethyl]pyrazine-2-carboxamide hydrochloride], for which, for the setting “1 μM”, the inhibition at 1 µM is 78%. In addition, under “3 μM”, the inhibition at 3 µM was found to be 85%.

Consider `Cc1ccc2c(c1)c(C(=O)N1CCN(c3cnc(C(=O)NCCc4ccc(O)cc4)cn3)CC1)c(-c1ccccc1)n2C` [Example 145, 5-{4-[(1,5-dimethyl-2-phenyl-1H-indol-3-yl)carbonyl]piperazin-1-yl}-N-[2-(4-hydroxyphenyl)ethyl]pyrazine-2-carboxamide hydrochloride], for which the inhibition at 1 µM (1 μM) was 55%. Also, where the note is “3 μM”, the inhibition at 3 µM worked out at 64%.

As to `CC(=O)C1(c2ccccc2)CCN(C(=O)C=Cc2c(-c3ccc(C(=O)O)cc3)n(C)c3ccc(C)cc23)CC1` [Example 146, 4-{3-[3-(4-acetyl-4-phenylpiperidin-1-yl)-3-oxo-1-propenyl]-1,5-dimethyl-1H-indol-2-yl}benzoic acid], for the setting “1 μM”, the inhibition at 1 µM was 43%. For the same compound, the inhibition at 3 µM (3 μM) is 60%.

For `Cc1ncsc1CCNC(=O)c1cnc(N2CCN(C(=O)c3c(-c4ccccc4)n(C)c4ccc(F)cc34)CC2)cn1` [Example 147, 5-{4-[(5-fluoro-1-methyl-2-phenyl-1H-indol-3-yl)carbonyl]piperazin-1-yl}-N-[2-(4-methyl-1,3-thiazol-5-yl)ethyl]pyrazine-2-carboxamide dihydrochloride], under “1 μM”, the inhibition at 1 µM was 29%. In addition, the inhibition at 3 µM (3 μM) turned out to be 59%.

Take `Cc1cnc2c(c1)c(C(=O)N1CCN(c3cnc(C(=O)NCCc4scnc4C)cn3)CC1)c(-c1ccccc1)n2C` [Example 148, 5-{4-[(1,5-dimethyl-2-phenyl-1H-pyrrolo[2,3-b]pyridin-3-yl)carbonyl]piperazin-1-yl}-N-[2-(4-methyl-1,3-thiazol-5-yl)ethyl]pyrazine-2-carboxamide trihydrochloride]: for the setting “1 μM”, the inhibition at 1 µM worked out at 29%. Further, the inhibition at 3 µM (3 μM) was 53%.

What is called inhibition is the change of the read-out against control, counted positive when it falls.
